We go through four compounds from US20080249042A1, “All-Trans-Retinol: All-Trans-13,14-Dihydroretinol Saturase and Methods of Its Use” (UNIVERSITY OF WASHINGTON, priority 2004, published 2008).

Read-outs that look alike come from different tables or passages of the source.

Series [1] in a line: Liver retinoids of Lrat-/- mice 3 h after gavage with all-trans-ROL palmitate. Type of series: in vivo, mouse. The following applies: for Level of liver retinoids 3 hr following gavage with ROL palmitate / concentration at 3 h: Lrat-/- mice, 3 hr post-gavage, liver; for concentration at 3 h: Lrat−/− (LRAT-deficient knockout), mouse, oral, read-out: Level of liver retinoids 3 hr following gavage with ROL palmitate. The text has this: Metabolism of Retinoids in Vivo. All animal experiments employed procedures approved by the University of Washington and conformed to recommendations of the American Veterinary Medical Association Panel on Euthanasia and recommendations of the Association of Research for Vision and Ophthalmology. Animals were maintained on a 12-h light and 12-h dark cycle. All manipulations were done under dim red or infrared light (>560 nm). Most experiments used 6-12-week-old mice. Lrat−/− mice were genotyped as described previously. Batten, et al. J. Biol. Chem. 279:10422-10432, 2004. Animals were maintained on a control chow diet up to 1 h prior to oral gavage. The appropriate amount of all-trans-ROL palmitate, all-trans-DROL, or all-trans-RA was dissolved in vegetable oil and administered by oral gavage 3 h prior to analysis.
Analysis of Retinoids. Liver (1 g) from retinoid gavaged or naive mice was homogenized in 2 ml of 137 mM NaCl, 2.7 mM KCl, and 10 mM sodium phosphate (pH 7.4) for 30 s using a Polytron homogenizer. 10 μl of 5 M NaOH was added to 3 ml of the ethanolic extract, and the nonpolar retinoids were extracted using 5 ml of hexane. The extraction was repeated, and the organic phases were combined, dried under vacuum, resuspended in hexane, and examined by normal phase HPLC using a normal phase column (Beckman Ultrasphere Si 5μ, 4.6×250 mm). The elution condition was an isocratic solvent system of 10% ethyl acetate in hexane (v/v) for 25 min at a flow rate of 1.4 ml/min at 20° C. with detection at 325 and 290 nm for the detection of nonpolar retinoids and 13,14-dihydroretinoids, respectively. The aqueous phase was acidified with 40 μl of 12 N HCl, and polar retinoids were extracted with 5 ml of hexane. The extraction was repeated, and the organic phases of the polar retinoid extractions were combined, dried, resuspended in solvent composed of 80% CH3CN, 10 mM ammonium acetate, 1% acetic acid, and examined by reverse phase HPLC. Analysis of polar retinoids from tissues was done by reverse phase HPLC using a narrowbore, 120-Å, 5-μm, 2.1×250 mm, Denali C18 column (Grace-Vydac, Hesperia, Calif.). The solvent system was composed of buffer A, 80% methanol, 20% 36 mM ammonium acetate (pH 4.7 adjusted with acetic acid), and buffer B, 100% methanol. The HPLC elution conditions were […], 100% buffer A for 40 min, 100% buffer B for 10 min, and 10 min equilibration in buffer A. The elution profiles of RA and DRA were monitored using an online diode array detector set at 350 and 290 nm, respectively. The peaks were identified based on their UV-visible spectra and/or coelution with synthetic or commercially available standards. The measured area of absorbance was converted to picomoles based on a calibration of the HPLC columns using a known amount of all-trans-RA or all-trans-ROL (Sigma) and all-trans-DROL or all-trans-DRA (synthetic standards). The extraction efficiency was monitored by spiking a tissue sample with [^3H]RA (PerkinElmer Life Sciences) and monitoring the radioactivity recovered from the HPLC column. In the case of liver samples the extraction efficiency was 95% or better. Mass spectrometry analyses of synthesized retinoids and of natural retinoids purified by HPLC were performed using a Kratos profile HV-3 direct probe mass spectrometer.

In a further series the target is T1, CYP26B1 (Mus musculus, UniProt Q811W2).
T1 sequence (Q811W2 1-512): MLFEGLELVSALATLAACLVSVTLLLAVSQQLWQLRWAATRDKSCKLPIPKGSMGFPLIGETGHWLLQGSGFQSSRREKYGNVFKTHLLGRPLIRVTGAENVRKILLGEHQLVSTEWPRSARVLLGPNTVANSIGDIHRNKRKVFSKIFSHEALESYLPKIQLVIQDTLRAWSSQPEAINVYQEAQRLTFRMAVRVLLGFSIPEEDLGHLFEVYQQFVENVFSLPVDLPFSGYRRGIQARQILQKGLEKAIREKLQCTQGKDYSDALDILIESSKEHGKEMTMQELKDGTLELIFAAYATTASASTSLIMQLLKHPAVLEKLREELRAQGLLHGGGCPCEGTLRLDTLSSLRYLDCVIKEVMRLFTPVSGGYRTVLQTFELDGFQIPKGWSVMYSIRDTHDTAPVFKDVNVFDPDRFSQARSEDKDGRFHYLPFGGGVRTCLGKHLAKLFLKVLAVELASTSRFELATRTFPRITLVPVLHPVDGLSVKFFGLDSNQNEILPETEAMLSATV
The following applies: 0.1 mM, 4 h, cells in culture.

A further series addresses T2, Equine liver ADH (Equus caballus, UniProt P00327).
T2 construct: we used ADH purified from horse liver (EC 1.1.1.1 [EC]); purchased Sigma; host or cells: horse liver
The series can be described thus: Oxidation using liver alcohol dehydrogenase. Type of series: biochemical, horse. The following applies: in the presence of NAD and NADP. The method, then: Oxidation of All-trans-ROL and All-trans-DROL Using Liver Alcohol Dehydrogenase. Equine liver ADH (EC 1.1.1.1 [EC] ) was obtained from Sigma and dissolved in 50 mM Tris (pH 8.8) to a concentration of 5 units/ml (8.6 mg/ml). NAD and NADP were mixed together (1:1) at a concentration of 10 mM each. A substrate solution, 2 μl of 2 mM stock of all-trans-ROL or all-trans-DROL in N,N-dimethylformamide, was added to a 1.5-ml Eppendorf tube containing 20 μl of 10% bovine serum albumin, 20 μl of ADH, 2 μl of cofactor mixture, and 50 mM Tris (pH 8.8) to a total volume of 200 μl. The solutions were incubated at 37° C. for 60 min, after which 50 μl of 0.8 M NH2OH solution (pH 7.0) was added, followed by addition of 300 μl of methanol, 15 min at room temperature, and extraction with 300 μl of hexane. The organic phase was dried and analyzed by normal phase HPLC as described in the analysis of nonpolar retinoids extracted from tissue samples. As a control for the nonenzymatic reaction, boiled protein (90° C. for 5 min) was used with or without addition of cofactors.

The target in another series is T3, prRDH (Homo sapiens, UniProt Q9NYR8).
T3 sequence (Q9NYR8 1-311): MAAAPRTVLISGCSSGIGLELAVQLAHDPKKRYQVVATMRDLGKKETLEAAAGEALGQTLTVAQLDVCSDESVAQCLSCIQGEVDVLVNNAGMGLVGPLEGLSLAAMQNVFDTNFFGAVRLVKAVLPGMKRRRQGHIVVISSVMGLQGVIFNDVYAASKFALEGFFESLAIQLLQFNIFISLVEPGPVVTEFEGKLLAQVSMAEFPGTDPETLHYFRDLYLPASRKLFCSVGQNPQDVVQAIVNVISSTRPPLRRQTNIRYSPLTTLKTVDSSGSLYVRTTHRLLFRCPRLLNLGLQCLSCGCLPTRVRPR
Nature of the series: Oxidation by photoreceptor-specific RDH. The class given is biochemical. The settings on record: results not shown.

Setting [2] is: 3 h post-gavage with ROL palmitate.
Where [3] appears, read: 10^5 IU/kg body weight all-trans-ROL palmitate.
Where [4] appears, read: 10^6 IU/kg body weight all-trans-ROL palmitate.

T2 sequence (P00327 2-375 limits assumed): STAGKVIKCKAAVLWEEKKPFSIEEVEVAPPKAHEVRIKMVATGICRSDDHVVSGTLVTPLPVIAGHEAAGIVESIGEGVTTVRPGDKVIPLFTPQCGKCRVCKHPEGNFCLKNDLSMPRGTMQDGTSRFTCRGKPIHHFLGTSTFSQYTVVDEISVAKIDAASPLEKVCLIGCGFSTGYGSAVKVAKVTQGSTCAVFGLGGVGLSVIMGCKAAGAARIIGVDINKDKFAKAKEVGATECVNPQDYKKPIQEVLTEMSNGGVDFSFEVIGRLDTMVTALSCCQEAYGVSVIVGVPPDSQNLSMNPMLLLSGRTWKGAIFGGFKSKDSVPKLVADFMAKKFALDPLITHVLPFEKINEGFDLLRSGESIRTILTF
Method for CYP26B1: CYP26A1 Oxidation Assay. […] After 24 h, the transfected cells were split into 12-well plates to ensure an equal number of transfected cells in each assay well. […] The peaks were identified based on their spectra and coelution with standards. The cell lysate was examined for expression of CYP26A1, -B1, and -C1 by SDS-PAGE and immunoblotting of the V5 epitope-tagged recombinant protein using an anti-V5 epitope monoclonal antibody (Invitrogen).

With `CC1=C(/C=C/C(C)=C/C=C/C(C)CC(=O)O)C(C)(C)CCC1` (stereo not drawn) [all-trans-DRA, all-trans-13,14-dihydroretinoic acid], in series [1] (setting [2]), the “Liver level, fold lower than all-trans-RA” value was 30-50 fold. The “Level of liver retinoids 3 hr following gavage with ROL palmitate” value (shortened to “Level … with ROL palmitate”) in series [1] (setting [3]) amounted to 10 ± 2 pmol/g tissue; in series [1] (setting [4]), 190 ± 17 pmol/g tissue. In addition, the “Oxidation to polar metabolites by CYP26B1” value on CYP26B1 is “efficiently carried out the oxidation”.
As for `CC1=C(/C=C/C(C)=C/C=C/C(C)CCO)C(C)(C)CCC1` (stereo not drawn) [all-trans-DROL, all-trans-13,14-dihydroretinol], at Equine liver ADH, the “Oxidation to the aldehyde by ADH” value is recorded as “efficiently carried out the conversion”. Moreover, the “Oxidation to the aldehyde by prRDH” value on prRDH is reported as “much less so”. Further, the “Liver level, fold lower than all-trans-ROL” value in series [1] (setting [2]) was 280-330 fold. Besides, the entries for the “Level … with ROL palmitate” value in series [1] (setting [3]) and in series [1] (setting [4]) were 21 ± 4 pmol/g tissue and 100 ± 18 pmol/g tissue, respectively.
Regarding `CC1=C(/C=C/C(C)=C/C=C/C(C)=C/C(=O)O)C(C)(C)CCC1` [all-trans-RA, all-trans-retinoic acid, reference compound], the concentration at 3 h in series [1] (setting [3]) turned out to be 0.32 ± 0.24 µM; in series [1] (setting [4]) it was 9.4 µM. Besides, the “Oxidation to polar metabolites by CYP26B1” value on CYP26B1 is “efficiently carried out the oxidation”.
As for `CC1=C(/C=C/C(C)=C/C=C/C(C)=C/CO)C(C)(C)CCC1` [all-trans-ROL, all-trans-retinol], at Equine liver ADH, the “Oxidation to the aldehyde by ADH” value is “efficiently carried out the conversion”. Besides, the “Oxidation to the aldehyde by prRDH” value at prRDH is on record as “active”. In addition, the results for the “Level … with ROL palmitate” value in series [1] (setting [3]) and in series [1] (setting [4]) were 7,000 ± 1,200 pmol/g tissue and 28,000 ± 300 pmol/g tissue, respectively.
